Test results as given in a melting point compilation (Tetko et al.; mined from patent text by program, amines drawn as free bases though some values may be those of a salt).

Row | Compound | melting point [°C]
1 | CS(=O)(=O)OC1Cc2ccccc2C1 | 75 to 77
2 | CS(=O)(=O)NC(=O)c1ccc(Cl)cc1NC(=O)c1cc(-c2ccc(Cl)cc2)oc1C(F)(F)F | 259 to 262
3 | COC(=O)/C=C/C(=O)/C=C/c1ccc(OC)cc1 | 54 to 55
4 | Cc1oc(-c2ccccc2)nc1COc1ccc(COc2cncc(CC(=O)O)c2)cc1 | 139 to 140
5 | CCCCCCCN(CCCCCSc1nc(-c2ccc(O)cc2)c(-c2ccc(O)cc2)[nH]1)C(=O)Nc1ccc(F)cc1F | 110 to 112
6 | Cc1ccc2c(c1)c(=O)n1nc(C(=O)O)cc1n2C | 269
7 | CCC1CCCCN1C(=O)C=Cc1c(-c2cccc(N)c2)nn2ccccc12 (stereo unspecified) | 150 to 151
8 | CCCCCc1c(/C=C/C(=O)O)oc2cc(OC)ccc12 | 146 to 147
9 | Nc1cc(Oc2ccc(-c3ccc(Oc4cc(N)cc(C(F)(F)F)c4)cc3)cc2)cc(C(F)(F)F)c1 | 130 to 133
10 | CCOC(=O)C1=NOC(c2ccc(NC(=O)c3c(I)cccc3C(=O)NC(C)C)c(C)c2)(C(F)(F)F)C1 (stereo unspecified) | 172 to 174
11 | O=C(NS(=O)(=O)C=Cc1ccccc1)N1CCCC1 | 201 to 204
12 | Cc1ccc2[nH]c3c(cc(-c4ccc(O)cc4)c(=O)n3C)c2c1 | 186
13 | O=c1[nH]c2ccc(Cl)cc2n1CCCN1CCC(O)(c2ccc(Cl)cc2)CC1 | 181
14 | CC(=O)C1COc2ccccc2C1=O (stereo unspecified) | 81 to 83
15 | O=C(COc1ccccc1)N[C@H]1C(=O)N[C@H]1C(=O)O (relative stereo) | 150 to 151
16 | COc1ccc(-c2coc3ccc(-c4nnc(SC)o4)cc23)cc1 | 156 to 157
17 | CCOC(=O)c1cc(C#N)c(C)nc1NC(C)CC (stereo unspecified) | 55 to 57
18 | OCc1ccc(-c2ccc(-c3ccsc3)s2)s1 | 158 to 160
19 | CCOC(=O)c1ncn2c1CN(C)C(=O)c1cc(C(F)(F)F)ccc1-2 | 179 to 180
20 | Oc1ccc2c(-c3nc4ccc(O)cc4o3)cccc2c1 | 273 to 275
21 | O=C(O)CCC1(CCC(=O)O)CCC(=O)N1 | 162 to 164
22 | COc1cc(C(C)C)ccc1C1(Cl)C(=O)c2cccc([N+](=O)[O-])c2C1=O (stereo unspecified) | 81 to 84
23 | CC(=O)OC1Cc2ccc(N)cc2C1 (stereo unspecified) | 237 to 239
24 | CCN(CC)S(=O)(=O)N1CCNC1=O | 80 to 82
25 | CC(C)(C)c1cc(-c2nnc(NCCO)s2)cc(C(C)(C)C)c1O | 212 to 214
26 | O=S(=O)(c1ccc(O)cc1)c1ncn(-c2ccccc2)c1-c1ccccc1 | 300

Row | Compound | melting point [°C]
27 | Cc1cc(C)c2c(c1)c1c(n2Cc2ccc(Cl)cc2)C(CC(=O)O)CCC1 (stereo unspecified) | 187 to 188
28 | COc1ccc(-c2c(Cl)c(CN3C(=O)CCC3=O)nc3sc4c(c23)CCNC4)cc1OC | 250 to 252
29 | CCCCOc1ccc(-n2cc(C(=O)O)cn2)cc1C#N | 200 to 202
30 | CCOC(=O)N(CCNc1ccc2ncc(-c3ccc(C(N)=O)cc3)n2n1)c1ccccc1 | 227 to 228
31 | O=C(CCCCC(=O)Oc1ccc(NC(=O)c2ccccc2)cc1)CC1CC(O)CC1=O (stereo unspecified) | 143 to 146
32 | CC(=O)N[C@@H](CO)C(=O)NCCO[N+](=O)[O-] | 91 to 93
33 | CC(C)NC(=O)C1CC(=O)N(Cc2ccccc2)C1 (stereo unspecified) | 122 to 124
34 | CC(C)(C)CC(C)(C)c1ccc(OCC(=O)Nc2ccc(Cl)c(Nc3cc(=O)n(-c4c(Cl)cc(Cl)cc4Cl)[nH]3)c2)cc1 | 126 to 128
35 | NC(=O)c1nc(-c2c(Cl)cc(C(F)(F)F)cc2Cl)[nH]c1C(N)=O | 306 to 308
36 | CC(=O)N1c2ccc(F)cc2CC1C(N)=O (stereo unspecified) | 232 to 235
37 | O=S(=O)(Cl)c1cc2c(Br)cccc2o1 | 87.2
38 | CC(=O)N1C(C(=O)O)CSC1c1ccccc1OCCO[N+](=O)[O-] (stereo unspecified) | 159 to 162
39 | Cc1ccc(-c2nc(N)ncc2-c2ccc(=O)[nH]n2)cc1 | 249
40 | CCCNC(=O)CCCCCn1c(COCC)nc2c(N)nc3ccccc3c21 | 161 to 162
41 | Cc1ccc(Cl)cc1N1CN(C(C)(C)C)CN(C)C1=S | 130 to 132
42 | COS(=O)(=O)Cc1cccc(-c2nc(=O)c3ccccc3s2)n1 | 102
43 | COc1cc2c(c3c1OC(C)(C)C3)C(Nc1ccccc1)=NC(C)(C)C2 | 135 to 136
44 | CCOC(=O)C(C)c1ccc(O)c(NC(C)=O)c1 (stereo unspecified) | 137 to 141
45 | CCOc1ccc(C2=NN(c3ccc(C4=NNC(=O)CC4C)cc3)C(=O)C3CC=CCC23)cc1OCC (stereo unspecified) | 164 to 165
46 | CCCCCCCCCCCCCCCc1cc2c(C(=O)O)cccc2[nH]1 | 114 to 117
47 | CCc1cc2c(cc1CC)C(=O)C(Cl)=CC2=O | 90 to 92
48 | CS(=O)(=O)c1ccc(-n2nc(C(F)(F)F)cc2-c2ccc(-c3cccs3)cc2)cc1F | 75 to 76
49 | CCCCCCCCCCCCCCCCCC1CC(O)C(CC)C(=O)O1 (racemic) | 101 to 102
50 | Fc1ccc(-n2cc(C3CCN(CCN4CCNC4=S)CC3)c3ccc(Cl)cc32)cc1 | 184 to 186
51 | CNC(=O)Nc1ccc(OCC2CCN(c3ccncc3)CC2)cc1 | 222 to 224
52 | CC(C(=O)O)c1cc(CC(=O)O)c(-c2ccccc2)s1 (stereo unspecified) | 145 to 146

Row | Compound | melting point [°C]
53 | CC1CCc2c(-c3ccc([N+](=O)[O-])cc3)ccc3c(=O)c(C(=O)O)cn1c23 (stereo unspecified) | > 300
54 | Cc1c(C(=O)N[C@H](C)[C@](O)(Cn2cncn2)c2ccc(F)cc2F)cnn1-c1cccc(C(F)(F)F)c1 | 146 to 147
55 | O=C(O)C1CC(=O)N(Cc2ccccc2)C1c1ccccc1 (stereo unspecified) | 169 to 171
56 | COc1c(C=Cc2ccccc2)cc(C(C)(C)C)cc1C=Cc1ccccc1 | 129 to 130
57 | CC1(C)CCC(C)(C)c2cc(CC#Cc3ccc(C(=O)O)c(O)c3)ccc21 | 178 to 180
58 | COCCOC(=O)c1cnn2c(-c3cccc(C(F)(F)F)c3)ccnc12 | 111 to 112
59 | CN(C)c1ccc(C2(c3ccc(N(C)C)cc3N(C)C)OC(=O)c3ccc(N(C)C)cc32)c(N(C)C)c1 | 188 to 192
60 | N#CC1=Cc2ccc(OCc3ccccc3)cc2OC1 | 108 to 109
61 | Cc1cc(C(O)CN2CCC(O)(c3cccc(F)c3)CC2)c(C)cc1O (stereo unspecified) | 193
62 | O=[N+]([O-])c1ccc(N=Nc2ccc(O)c(CO)c2)cc1 | 178 to 179
63 | N#Cc1ccc(NC(=O)[C@H](CC(=O)O)NCc2ccccc2)cc1 | 178
64 | CCOC(=O)C1=C(C)NC(C)=C(C(=O)OCC)C1c1ccccc1/C=C/C(=O)OC1CCCC1 | 182 to 184
65 | CCOc1nn(Cc2ccc(OCc3nc(-c4ccccc4)oc3C)cn2)cc1CCC(=O)O | 133 to 134
66 | O=CN1CCC(O)(c2ccccc2Cc2ccccc2)CC1 | 171 to 174
67 | CCOC(=O)C1=C(C)NC(C)=C(C(=O)OCC)C1c1cc(Cl)ccc1Cl | 166 to 168
68 | Cn1cc(C2=CCN(CCCn3nnc4ccccc4c3=O)CC2)c2ccccc21 | 70
69 | COc1cc(NCCCCCC(=O)NCC(C)C)c2nccc(C)c2c1 | 111 to 112
70 | O[C@H]1COC(c2cc3ccccc3[nH]2)=N[C@@H]1c1ccccc1 (racemic) | 204
71 | COc1ccc2nc3snc(C(=O)c4ncc(C)c(OC)c4C)n3c2c1 | 196 to 197
72 | CCCCN1C[C@H](CO)[C@@H](O)[C@H](O)C1 | 94 to 95
73 | CN1CCN(C(=O)N2CC(Oc3ccc(Br)cc3)C2)CC1 | 91 to 95
74 | Cc1cc(-c2cccc(Cl)c2)nnc1Cl | 138 to 140
75 | COC(=O)c1cc(C(=O)N2CCCOCC2)c2cc(Cc3ccc(F)cc3)cnc2c1O | 136 to 137
76 | Cc1cn(C)c2c1N(C(=O)C(C)N1CCCC1)c1ccccc1NC2=O (stereo unspecified) | 213 to 215
77 | COc1ccccc1C(=O)c1noc(CC(N)=O)n1 | 149 to 150
78 | COc1ccc2c(c1)c(Cc1cc(=O)n(-c3cccc(Br)c3)[nH]1)c(C)n2C(=O)c1ccc(Cl)cc1 | 164 to 167

Row | Compound | melting point [°C]
79 | COc1cc2ncc(C#N)c(Nc3cccc(SC)c3)c2cc1OC | > 250
80 | COc1ccc(N)cc1NCC(N)=O | 144
81 | COC(=O)C1=C(C)NC(=S)N(C(=O)Cc2ccccc2)C1c1cccc([N+](=O)[O-])c1 (stereo unspecified) | 155 to 156
82 | Cc1ccc(-c2nn(-c3ccc(Br)cc3)c(N)c2C(N)=O)cc1 | 222 to 223
83 | CC(NC(=O)c1ccc(-c2ccccc2)cc1)C(=O)O (stereo unspecified) | 160
84 | CN1CCC(c2n[nH]c3ccc(NC(=O)c4ccc(F)cc4)cc23)CC1 | 151 to 153
85 | Cc1cc2occc2cn1 | 55 to 56
86 | COc1cc(OC)nc(Oc2ccc3ccccc3c2C=O)n1 | 123 to 125
87 | CCCCCCCCCCCC/C=C/c1ccc2c(c1)OCO2 | 34 to 36
88 | Cc1nc(N2CCN(Cc3ccc(OC(F)(F)F)cc3)C2=O)sc1C(=O)NCCc1cccnc1 | 172 to 173
89 | COc1ccc(CNn2nnc3c(Cl)ncnc32)cc1 | 110 to 112
90 | COC(=O)c1cc(-c2ccccc2C)c(C(=O)OC)cc1I | 105 to 109
91 | COc1ccc(CCNC(C)=O)cc1OC | 99 to 100
92 | Cc1ccc(C)c(C(=O)c2ccccc2)c1O | 111 to 114
93 | CC(C)c1cc(S(=O)(=O)Cl)c(C(C)C)cc1Br | 80.5 to 83
94 | O=C(O)c1ccc2nc3c4nc5cc(C(=O)O)ccc5nc4c4nc5cc(C(=O)O)ccc5nc4c3nc2c1 | > 390
95 | O=c1c2ccc(Cl)cc2[nH]c2c(O)nn(Cc3ccsc3)c(=O)c12 | > 250
96 | CC(C)(N)c1ccc(-c2nc(Nc3cc(F)c(F)c(F)c3)ncc2C#N)cc1 | 220
97 | CNc1ncnc2c1ncn2Cc1c(F)cccc1Cl | 188 to 190
98 | CCOC(=O)C(=CNc1nnc(N2CCOC(C)C2)s1)C(=O)OCC (stereo unspecified) | 89 to 91
99 | O=C(NC1CCC(CCN2CCN(c3nccc4c3OCC4)CC2)CC1)c1ccc(N2CCS(=O)(=O)CC2)cc1 (stereo unspecified) | 260
100 | O=C(Nc1cccc(-c2ccccc2)c1)Nc1ccccc1CCO | 196 to 198
101 | COc1ccc2c3c([nH]c2c1)CC(NC(C)=O)CC3 (stereo unspecified) | 192 to 193
